Measured values reported in patent publication US12723063B2, “GIPR-agonist compounds” (Eli Lilly and Company, priority 2019, dated 2026).
*1 amine or outer side, *2 acyl side, *3 side chain or, on linkers, in order; H or OH if unused. Where a SMILES comes first, the peptide text is derived from it. Side-chain parts run from the residue outwards. [ ]: non-standard residue; d: D form. The star is where a group is joined. C20 diacid = O=C(O)CCCCCCCCCCCCCCCCCCC(=O)*; C18 diacid = O=C(O)CCCCCCCCCCCCCCCCC(=O)*; αMePhe(2-F) = C[C@](N)(Cc1ccccc1F)C(=O)O; γGlu = O=C(O)[C@H](CCC(=O)[*:2])N[*:1]; 4Pal = N[C@@H](Cc1ccncc1)C(=O)O; αMeL = CC(C)C[C@](C)(N)C(=O)O; Orn = NCCC[C@H](N)C(=O)O; AEEA = NCCOCCOCC(=O)O; Aib = CC(C)(N)C(=O)O

Key:
Experiment in all cases: cAMP functional assay (HTRF) in HEK293 cells in presence of 0.1% casein
Type in all cases: cell-based
[1] = target: T1, human glucagon receptor (GcgR) (Homo sapiens, UniProt P47871); details: HEK293 cells expressing human GcgR, geometric mean, read-out: hGcgR cAMP Rel EC50 nM (SEM, n)
T1 construct: expressed in transfected cells; host or cells: HEK293
T1 sequence (P47871 26-477): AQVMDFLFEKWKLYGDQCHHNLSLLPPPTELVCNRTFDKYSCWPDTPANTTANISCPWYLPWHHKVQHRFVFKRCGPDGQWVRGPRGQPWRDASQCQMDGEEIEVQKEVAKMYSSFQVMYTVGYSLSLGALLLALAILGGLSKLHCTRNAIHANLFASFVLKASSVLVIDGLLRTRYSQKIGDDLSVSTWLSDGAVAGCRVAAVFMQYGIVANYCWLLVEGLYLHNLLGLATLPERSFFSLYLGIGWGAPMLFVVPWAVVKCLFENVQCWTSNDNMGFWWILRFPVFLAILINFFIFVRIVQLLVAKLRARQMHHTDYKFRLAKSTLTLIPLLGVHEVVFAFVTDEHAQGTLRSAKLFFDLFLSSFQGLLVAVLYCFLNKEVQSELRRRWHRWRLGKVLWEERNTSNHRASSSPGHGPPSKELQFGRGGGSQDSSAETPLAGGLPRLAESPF

[2] = target: T2, human GLP-1 receptor (GLP-1R) (Homo sapiens, UniProt P43220); details: HEK293 cells expressing human GLP-1R, geometric mean, read-out: hGLP1R cAMP Rel EC50 nM (SEM, n)
T2 construct: expressed in transfected cells; host or cells: HEK293
T2 sequence (P43220 24-463): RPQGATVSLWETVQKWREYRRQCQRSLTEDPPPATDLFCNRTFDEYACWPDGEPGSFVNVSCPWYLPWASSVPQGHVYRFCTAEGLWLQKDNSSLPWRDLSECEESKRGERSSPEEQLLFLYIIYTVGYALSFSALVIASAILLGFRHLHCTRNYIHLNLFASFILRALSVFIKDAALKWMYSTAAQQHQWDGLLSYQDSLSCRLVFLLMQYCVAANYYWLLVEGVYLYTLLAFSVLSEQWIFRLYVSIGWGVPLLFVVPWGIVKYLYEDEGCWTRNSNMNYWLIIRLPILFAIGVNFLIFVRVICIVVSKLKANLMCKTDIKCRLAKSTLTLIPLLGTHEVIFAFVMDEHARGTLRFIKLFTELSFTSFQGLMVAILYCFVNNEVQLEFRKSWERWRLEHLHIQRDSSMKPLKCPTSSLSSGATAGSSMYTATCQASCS

[3] = target: T3, human glucose-dependent insulinotropic peptide receptor (GIPR) (Homo sapiens, UniProt P48546); details: HEK293 cells expressing human GIPR, geometric mean, read-out: hGIPR cAMP Rel EC50 nM (SEM, n)
T3 construct: expressed in transfected cells; host or cells: HEK293
T3 sequence (P48546 22-466): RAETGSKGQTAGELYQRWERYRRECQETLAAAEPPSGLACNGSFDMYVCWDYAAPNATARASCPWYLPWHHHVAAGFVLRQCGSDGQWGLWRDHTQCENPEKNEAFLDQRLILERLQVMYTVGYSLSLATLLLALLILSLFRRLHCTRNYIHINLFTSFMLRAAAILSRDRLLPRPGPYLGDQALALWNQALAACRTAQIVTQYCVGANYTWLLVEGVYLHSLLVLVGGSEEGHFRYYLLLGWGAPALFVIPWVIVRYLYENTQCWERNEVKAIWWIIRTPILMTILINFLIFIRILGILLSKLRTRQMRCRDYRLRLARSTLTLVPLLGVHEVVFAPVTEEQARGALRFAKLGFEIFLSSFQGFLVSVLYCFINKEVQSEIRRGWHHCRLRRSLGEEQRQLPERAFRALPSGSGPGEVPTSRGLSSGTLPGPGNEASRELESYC

SMILES	EC50 [1] [nM]	EC50 [2] [nM]	EC50 [3] [nM]
CC[C@H](C)[C@H](NC(=O)[C@H](Cc1ccccc1)NC(=O)[C@@H](NC(=O)CNC(=O)[C@H](CCC(=O)O)NC(=O)C(C)(C)NC(=O)[C@@H](N)Cc1ccc(O)cc1)[C@@H](C)O)C(=O)N[C@@H](CO)C(=O)N[C@@H](CC(=O)O)C(=O)N[C@@H](Cc1ccc(O)cc1)C(=O)N[C@@H](CO)C(=O)N[C@H](C(=O)N[C@@](C)(CC(C)C)C(=O)N[C@@H](CC(C)C)C(=O)N[C@@H](CC(=O)O)C(=O)N[C@@H](CCCN)C(=O)N[C@@H](CCCCNC(=O)COCCOCCNC(=O)COCCOCCNC(=O)CC[C@H](NC(=O)CCCCCCCCCCCCCCCCCCC(=O)O)C(=O)O)C(=O)N[C@@H](Cc1c[nH]cn1)C(=O)N[C@@H](CCC(N)=O)C(=O)NC(C)(C)C(=O)N[C@@H](CC(=O)O)C(=O)N[C@@H](Cc1ccccc1)C(=O)N[C@H](C(=O)N[C@@H](CCC(=O)O)C(=O)N[C@@H](Cc1ccncc1)C(=O)N[C@@H](CC(C)C)C(=O)N[C@@H](CC(C)C)C(=O)N[C@@H](CCC(=O)O)C(=O)N[C@H](C(=O)NCC(=O)N1CCC[C@H]1C(=O)N[C@@H](CO)C(=O)N[C@@H](CO)C(=O)NCC(=O)N[C@@H](C)C(=O)N1CCC[C@H]1C(=O)N1CCC[C@H]1C(=O)N1CCC[C@H]1C(=O)N[C@@H](CO)C(N)=O)[C@@H](C)O)C(C)C)[C@@H](C)CC [Example 80] (H-Y[Aib]EGTFISDYSI[αMeL]LD[Orn]K([AEEA-AEEA-γGlu-C20 diacid])HQ[Aib]DFVE[4Pal]LLETGPSSGAPPPS-NH2)	> 5000	> 5000	0.0777
CC[C@H](C)[C@H](NC(=O)[C@H](CO)NC(=O)[C@H](Cc1ccc(O)cc1)NC(=O)[C@H](CC(=O)O)NC(=O)[C@H](CO)NC(=O)[C@@H](NC(=O)[C@](C)(Cc1ccccc1F)NC(=O)[C@@H](NC(=O)CNC(=O)[C@H](CCC(=O)O)NC(=O)C(C)(C)NC(=O)[C@@H](N)Cc1ccc(O)cc1)[C@@H](C)O)[C@@H](C)CC)C(=O)N[C@@H](C)C(=O)N[C@@H](CC(C)C)C(=O)N[C@@H](CC(=O)O)C(=O)N[C@@H](CCCCN)C(=O)N[C@H](C(=O)N[C@@H](Cc1c[nH]cn1)C(=O)N[C@@H](CCC(N)=O)C(=O)NC(C)(C)C(=O)N[C@@H](CCC(=O)O)C(=O)N[C@@H](Cc1ccccc1)C(=O)N[C@H](C(=O)N[C@@H](CC(N)=O)C(=O)N[C@@H](Cc1ccc(O)cc1)C(=O)N[C@@H](CCCCNC(=O)COCCOCCNC(=O)COCCOCCNC(=O)CC[C@H](NC(=O)CCCCCCCCCCCCCCCCC(=O)O)C(=O)O)C(=O)N[C@@H](CC(C)C)C(=O)N[C@@H](C)C(=O)NCC(=O)NCC(=O)N1CCC[C@H]1C(=O)N[C@@H](CO)C(=O)N[C@@H](CO)C(=O)NCC(=O)N[C@@H](C)C(=O)N1CCC[C@H]1C(=O)N1CCC[C@H]1C(=O)N1CCC[C@H]1C(=O)N[C@@H](CO)C(N)=O)C(C)C)[C@@H](C)CC [Example 94] (H-Y[Aib]EGT[αMePhe(2-F)]ISDYSIALDKIHQ[Aib]EFVNYK([AEEA-AEEA-γGlu-C18 diacid])LAGGPSSGAPPPS-NH2)	> 5000	1090	0.00436
CC[C@H](C)[C@H](NC(=O)[C@H](Cc1ccccc1)NC(=O)[C@@H](NC(=O)CNC(=O)[C@H](CCC(=O)O)NC(=O)C(C)(C)NC(=O)[C@@H](N)Cc1ccc(O)cc1)[C@@H](C)O)C(=O)N[C@@H](CO)C(=O)N[C@@H](CC(=O)O)C(=O)N[C@@H](Cc1ccc(O)cc1)C(=O)N[C@@H](CO)C(=O)N[C@H](C(=O)N[C@@](C)(CC(C)C)C(=O)N[C@@H](CC(C)C)C(=O)N[C@@H](CC(=O)O)C(=O)N[C@@H](CCC(=O)O)C(=O)N[C@@H](CCCCNC(=O)COCCOCCNC(=O)COCCOCCNC(=O)CC[C@H](NC(=O)CCCCCCCCCCCCCCCCCCC(=O)O)C(=O)O)C(=O)N[C@@H](Cc1c[nH]cn1)C(=O)N[C@@H](CCC(N)=O)C(=O)NC(C)(C)C(=O)N[C@@H](CC(=O)O)C(=O)N[C@@H](Cc1ccccc1)C(=O)N[C@H](C(=O)N[C@@H](CCC(=O)O)C(=O)N[C@@H](Cc1ccncc1)C(=O)N[C@@H](CC(C)C)C(=O)N[C@@H](CC(C)C)C(=O)N[C@@H](C)C(=O)N[C@@H](CCC(N)=O)C(=O)NCC(=O)N1CCC[C@H]1C(=O)N[C@@H](CO)C(=O)N[C@@H](CO)C(=O)NCC(=O)N[C@@H](C)C(=O)N1CCC[C@H]1C(=O)N1CCC[C@H]1C(=O)N1CCC[C@H]1C(=O)N[C@@H](CO)C(N)=O)C(C)C)[C@@H](C)CC [Example 84] (H-Y[Aib]EGTFISDYSI[αMeL]LDEK([AEEA-AEEA-γGlu-C20 diacid])HQ[Aib]DFVE[4Pal]LLAQGPSSGAPPPS-NH2)	> 5000	> 5000	0.034
CC[C@H](C)[C@H](NC(=O)[C@H](CCCCN)NC(=O)[C@H](CC(=O)O)NC(=O)[C@H](CC(C)C)NC(=O)[C@](C)(CC(C)C)NC(=O)[C@@H](NC(=O)[C@H](CO)NC(=O)[C@H](Cc1ccc(O)cc1)NC(=O)[C@H](CC(=O)O)NC(=O)[C@H](CO)NC(=O)[C@@H](NC(=O)[C@H](Cc1ccccc1)NC(=O)[C@@H](NC(=O)CNC(=O)[C@H](CCC(=O)O)NC(=O)C(C)(C)NC(=O)[C@@H](N)Cc1ccc(O)cc1)[C@@H](C)O)[C@@H](C)CC)[C@@H](C)CC)C(=O)N[C@@H](Cc1c[nH]cn1)C(=O)N[C@@H](CCC(N)=O)C(=O)NC(C)(C)C(=O)N[C@@H](CC(=O)O)C(=O)N[C@@H](Cc1ccccc1)C(=O)N[C@H](C(=O)N[C@@H](CCC(=O)O)C(=O)N[C@@H](Cc1ccncc1)C(=O)N[C@@H](CCCCNC(=O)COCCOCCNC(=O)COCCOCCNC(=O)CC[C@H](NC(=O)CCCCCCCCCCCCCCCCCCC(=O)O)C(=O)O)C(=O)N[C@@H](CC(C)C)C(=O)N[C@@H](CCC(=O)O)C(=O)NCC(=O)NCC(=O)N1CCC[C@H]1C(=O)N[C@@H](CO)C(=O)N[C@@H](CO)C(=O)NCC(=O)N[C@@H](C)C(=O)N1CCC[C@H]1C(=O)N1CCC[C@H]1C(=O)N1CCC[C@H]1C(=O)N[C@@H](CO)C(N)=O)C(C)C [Example 109] (H-Y[Aib]EGTFISDYSI[αMeL]LDKIHQ[Aib]DFVE[4Pal]K([AEEA-AEEA-γGlu-C20 diacid])LEGGPSSGAPPPS-NH2)	> 5000	> 5000	0.0113
CC[C@H](C)[C@H](NC(=O)[C@H](CO)NC(=O)[C@H](Cc1ccc(O)cc1)NC(=O)[C@H](CC(=O)O)NC(=O)[C@H](CO)NC(=O)[C@@H](NC(=O)[C@H](Cc1ccccc1)NC(=O)[C@@H](NC(=O)CNC(=O)[C@H](CCC(=O)O)NC(=O)[C@@H](C)NC(=O)[C@@H](N)Cc1ccc(O)cc1)[C@@H](C)O)[C@@H](C)CC)C(=O)N[C@@H](CC(C)C)C(=O)N[C@@H](CC(C)C)C(=O)N[C@@H](CC(=O)O)C(=O)N[C@@H](CCCCN)C(=O)N[C@@H](CCCCNC(=O)COCCOCCNC(=O)COCCOCCNC(=O)CC[C@H](NC(=O)CCCCCCCCCCCCCCCCC(=O)O)C(=O)O)C(=O)N[C@@H](C)C(=O)N[C@@H](CCC(N)=O)C(=O)NC(C)(C)C(=O)N[C@@H](CCC(=O)O)C(=O)N[C@@H](Cc1ccccc1)C(=O)N[C@H](C(=O)N[C@@H](CCC(=O)O)C(=O)N[C@@H](Cc1c[nH]c2ccccc12)C(=O)N[C@@H](CC(C)C)C(=O)N[C@@H](CC(C)C)C(=O)N[C@@H](C)C(=O)NCC(=O)NCC(=O)N1CCC[C@H]1C(=O)N[C@@H](CO)C(=O)N[C@@H](CO)C(=O)NCC(=O)N[C@@H](C)C(=O)N1CCC[C@H]1C(=O)N1CCC[C@H]1C(=O)N1CCC[C@H]1C(=O)N[C@@H](CO)C(N)=O)C(C)C [Example 29] (H-Y[dA]EGTFISDYSILLDKK([AEEA-AEEA-γGlu-C18 diacid])AQ[Aib]EFVEWLLAGGPSSGAPPPS-NH2)	> 5000	> 5000	0.00679
CC[C@H](C)[C@H](NC(=O)[C@H](CCCN)NC(=O)[C@H](CC(=O)O)NC(=O)[C@H](CC(C)C)NC(=O)[C@](C)(CC(C)C)NC(=O)[C@@H](NC(=O)[C@H](CO)NC(=O)[C@H](Cc1ccc(O)cc1)NC(=O)[C@H](CC(=O)O)NC(=O)[C@H](CO)NC(=O)[C@@H](NC(=O)[C@H](Cc1ccccc1)NC(=O)[C@@H](NC(=O)CNC(=O)[C@H](CCC(=O)O)NC(=O)C(C)(C)NC(=O)[C@@H](N)Cc1ccc(O)cc1)[C@@H](C)O)[C@@H](C)CC)[C@@H](C)CC)C(=O)N[C@@H](Cc1c[nH]cn1)C(=O)N[C@@H](CCC(N)=O)C(=O)NC(C)(C)C(=O)N[C@@H](CCC(=O)O)C(=O)N[C@@H](Cc1ccccc1)C(=O)N[C@H](C(=O)N[C@@H](CCC(=O)O)C(=O)N[C@@H](Cc1ccc(O)cc1)C(=O)N[C@@H](CCCCNC(=O)COCCOCCNC(=O)COCCOCCNC(=O)CC[C@H](NC(=O)CCCCCCCCCCCCCCCCCCC(=O)O)C(=O)O)C(=O)N[C@@H](CC(C)C)C(=O)N[C@@H](CCC(=O)O)C(=O)N[C@@H](C)C(=O)NCC(=O)N1CCC[C@H]1C(=O)N[C@@H](CO)C(=O)N[C@@H](CO)C(=O)NCC(=O)N[C@@H](C)C(=O)N1CCC[C@H]1C(=O)N1CCC[C@H]1C(=O)N1CCC[C@H]1C(=O)N[C@@H](CO)C(N)=O)C(C)C [Example 104] (H-Y[Aib]EGTFISDYSI[αMeL]LD[Orn]IHQ[Aib]EFVEYK([AEEA-AEEA-γGlu-C20 diacid])LEAGPSSGAPPPS-NH2)	> 5000	> 5000	0.0165
